Laboratory results reported in US20260097022A1, “COMPOUNDS AND USES THEREOF” (Integrated Biosciences, Inc., priority 2023, published 2026).

What follows are molecules tested on etoposide-treated IMR-90 cells (assay: Etoposide-induced senescence model, resazurin cell viability (screen and dose-response)). Details: 1 μM, 3 days.
Format: cell-based, human
Method: Cell culture. Human lung fibroblast (IMR-90) cells were obtained from ATCC (CCL-186) and passaged less than 10 times (less than 30 population doublings) for all experiments described in this example, with the exception of high-passage cells used in the model of replicative senescence (see the section on Replicative senescence below). Cells were cultured in growth media comprising Eagle's Minimum Essential Medium (EMEM: ATCC 30-2003) supplemented with 10% fetal bovine serum (FBS: Thermo Fisher 16140071) and 1% penicillin-streptomycin (Thermo Fisher 15070063). Cells were incubated in a humidity-controlled incubator at 37° C., with 5% CO2. Cells were detached using trypsin-EDTA (0.05%; Gibco 25300120).
Etoposide-induced senescence. IMR-90 cells were cultured as described above. At between 30 to 50% confluence, the media was replaced with complete growth media containing vehicle (0.5% dimethyl sulfoxide: DMSO, MilliporeSigma D5879) or complete growth media containing 50 μM etoposide (prepared as a 1:200 dilution of a 10 mM stock solution in DMSO; etoposide, MilliporeSigma E1383). Cells were treated for 2 days, after which the media was replaced with fresh growth media and cells were allowed to recover for 4 days. Cells were then plated as described below.
Chemical screening. For all screening experiments. 99 μL of cells were plated into each well of a 96-well clear flat-bottom, black polystyrene tissue-culture-treated plate (Corning 3904) at a density of ˜10+ cells/well. Plates were incubated overnight for adhesion. The day after plating. 1 μL of each compound, prepared as either a 1 mM stock solution in DMSO (10 μM final concentration screen) or 0.1 mM stock solution in DMSO (1 μM final concentration screen), was added to each well using an Agilent Bravo liquid handler. A built-in slow mixing step involving aspirating and dispensing was used to enhance distribution of the added compounds in solution. Cells were incubated for 3 days, after which resazurin (MilliporeSigma R^7017) was added to each well to a final concentration of 0.15 mM. After an additional 1 day of incubation, the fluorescence excitation/emission at 550/590 nm was read using a SpectraMaxR M3 plate reader and manufacturer software (SoftMax Pro R 6). Experiments were performed in biological duplicate.
Three-fold serial dilutions of compound were prepared in DMSO, then added to cell plates (final concentration of DMSO. 1%). Cell viability was then assayed as detailed above, and resazurin fluorescence values were linearly interpolated with respect to values from empty and positive control (non-treatment) wells. Experiments were performed in biological duplicate each on two independent occasions. When possible, chemical stocks from commercial suppliers were used: econazole nitrate (Cayman Chemical 20223), artenimol (Cayman Chemical 19846), and ABT-263 (Cayman Chemical 11500) were from Cayman Chemical, and dehydrodeguelin was aliquoted from the screening library.
Calculation of cellular viability values in dose-response curves. […] For each sample, the fluorescence intensity value was normalized by the mean of two untreated control values. Cellular viability values are therefore indicated as fractions of the cellular viability of untreated controls. Vehicle (1% DMSO) control values are included in each dose-response curve. Experiments were performed in biological duplicate each on two independent occasions.
Calculation of baseline cellular viability values. […] Additionally, baseline cellular viability values were calculated for untreated cells at the start of the experiment. Resazurin was added to a final concentration of 0.15 mM on the day of seeding (corresponding to day 0 in FIG. 7).

Row | Structure (SMILES) | senolytic activity in screen
1 | Cc1c(-c2ccc(N3CCc4cccc(C(=O)Nc5nc6ccccc6s5)c4C3)nc2C(=O)O)cnn1CC12CC3CC(CC(C3)C1)C2 [A-1331852, reference compound] | inactive

Same assay, conditions: 10 μM, 3 days; active: control viability >0.5, Snc/control ratio <0.7

Row | Structure (SMILES) | senolytic activity in screen
2 | Cc1c(-c2ccc(N3CCc4cccc(C(=O)Nc5nc6ccccc6s5)c4C3)nc2C(=O)O)cnn1CC12CC3CC(CC(C3)C1)C2 [A-1331852, reference compound] | active
3 | C[C@@H]1O[C@@H](O[C@H]2C[C@@H](O)[C@]3(CO)[C@H]4[C@H](O)C[C@]5(C)[C@@H](C6=CC(=O)OC6)CC[C@]5(O)[C@@H]4CC[C@]3(O)C2)[C@H](O)[C@H](O)[C@H]1O [ouabain, reference compound] | active
4 | CN(C)CC#Cc1ccc(OCCCc2sc(N3CCc4cccc(C(=O)Nc5nc6ccccc6s5)c4C3)nc2C(=O)O)c(F)c1 [A-1155463, reference compound] | active

Same assay, conditions: etoposide-induced senescence model; ratio of IC50 values between etoposide- and DMSO-treated IMR-90 fibroblasts

Row | Structure (SMILES) | Therapeutic Index (TI)
5 | CCC(Sc1nc2ccc(NC(=O)c3ccc(C)cc3)cc2s1)C(=O)Nc1ccc(Cl)cc1 (centres unmarked) [compound 65] | ++ (compounds with a TI of 1 to 5 were labelled as ++)
6 | COc1ccc(C(=O)Nc2ccc3nc(SCC(=O)Nc4cccc(C)c4)sc3c2)cc1 [compound 83] | ++ (compounds with a TI of 1 to 5 were labelled as ++)
7 | CCc1ccc(NC(=O)CSc2nc3ccc(NC(=O)c4ccccc4)cc3s2)cc1 [compound 134] | ++ (compounds with a TI of 1 to 5 were labelled as ++)
8 | CN(C(=O)CSc1nc2ccc(NC(=O)c3ccccc3)cc2s1)c1ccccc1 [compound 146] | + (Compounds with a TI of <1 were labelled as +)
9 | Cc1ccccc1C(=O)Nc1ccc2nc(SCC(=O)Nc3ccc(Cl)cc3)sc2c1 [compound 100] | ++ (compounds with a TI of 1 to 5 were labelled as ++)
10 | Cc1ccccc1C(=O)Nc1ccc2nc(SCC(=O)Nc3ccc([N+](=O)[O-])cc3)sc2c1 [compound 73] | ++ (compounds with a TI of 1 to 5 were labelled as ++)
11 | CCCCOc1ccc(C(=O)Nc2ccc3nc(SCC(=O)Nc4ccc(C(C)C)cc4)sc3c2)cc1 [compound 82] | ++ (compounds with a TI of 1 to 5 were labelled as ++)
12 | CS(=O)(=O)c1ccc(C(=O)Nc2ccc3nc(SCC(=O)Nc4cccc(S(N)(=O)=O)c4)sc3c2)cc1F [compound 173] | ++ (compounds with a TI of 1 to 5 were labelled as ++)
13 | Cc1cccc(NC(=O)CSc2nc3ccc(NC(=O)c4ccccc4F)cc3s2)c1C [compound 27] | +++ (compounds with a TI of >5 were labeled as +++)
14 | COc1ccc(NC(=O)CSc2nc3ccc(NC(=O)c4cccc(Cl)c4)cc3s2)cc1 [compound 79] | ++ (compounds with a TI of 1 to 5 were labelled as ++)
15 | Cc1cc(C)cc(NC(=O)CSc2nc3ccc(NC(=O)c4ccccc4C)cc3s2)c1 [compound 118] | ++ (compounds with a TI of 1 to 5 were labelled as ++)
16 | COc1ccccc1C(=O)Nc1ccc2nc(SCC(=O)Nc3ccc(F)cc3)sc2c1 [compound 84] | ++ (compounds with a TI of 1 to 5 were labelled as ++)
17 | O=C(CSc1nc2ccc(NC(=O)c3ccccc3)cc2s1)Nc1cccc(C(F)(F)F)c1 [compound 68] | ++ (compounds with a TI of 1 to 5 were labelled as ++)
18 | COc1ccc(C(=O)Nc2ccc3nc(SCC(=O)Nc4ccccc4)sc3c2)cc1OC [compound 5] | +++ (compounds with a TI of >5 were labeled as +++)
19 | CCc1cccc(CC)c1NC(=O)CSc1nc2ccc(NC(=O)c3cccc(C)c3)cc2s1 [compound 32] | ++ (compounds with a TI of 1 to 5 were labelled as ++)
20 | Cc1cccc(NC(=O)CSc2nc3ccc(NC(=O)c4ccccc4C)cc3s2)c1 [compound 159] | + (Compounds with a TI of <1 were labelled as +)
21 | O=C(CSc1nc2ccc(NC(=O)c3ccccc3)cc2s1)Nc1ccc(Br)cc1 [compound 137] | ++ (compounds with a TI of 1 to 5 were labelled as ++)
22 | O=C(CSc1nc2ccc(NC(=O)c3ccccc3Cl)cc2s1)Nc1ccccc1F [compound 42] | ++ (compounds with a TI of 1 to 5 were labelled as ++)
23 | COc1ccc(NC(=O)CSc2nc3ccc(NC(=O)c4ccccc4OC)cc3s2)cc1 [compound 101] | ++ (compounds with a TI of 1 to 5 were labelled as ++)
24 | Cc1ccc(NC(=O)CSc2nc3ccc(NC(=O)c4ccccc4)cc3s2)cc1Cl [compound 37] | ++ (compounds with a TI of 1 to 5 were labelled as ++)

Row | Structure (SMILES) | Therapeutic Index (TI)
25 | COc1cccc(C(=O)Nc2ccc3nc(SCC(=O)Nc4ccc(C)cc4)sc3c2)c1 [compound 13] | +++ (compounds with a TI of >5 were labeled as +++)
26 | Cc1ccccc1C(=O)Nc1ccc2nc(SCC(=O)Nc3ccc(C(C)C)cc3)sc2c1 [compound 151] | + (Compounds with a TI of <1 were labelled as +)
27 | Cc1ccc(NC(=O)C(C)Sc2nc3ccc(NC(=O)c4ccc(Cl)cc4)cc3s2)cc1 (centres unmarked) [compound 90] | ++ (compounds with a TI of 1 to 5 were labelled as ++)
28 | COC(=O)c1ccccc1NC(=O)CSc1nc2ccc(NC(=O)c3ccccc3C)cc2s1 [compound 67] | ++ (compounds with a TI of 1 to 5 were labelled as ++)
29 | O=C(CSc1nc2ccc(NC(=O)c3ccccc3)cc2s1)Nc1ccccc1C(F)(F)F [compound 128] | ++ (compounds with a TI of 1 to 5 were labelled as ++)
30 | COc1ccccc1C(=O)Nc1ccc2nc(SCC(=O)Nc3ccc(C(C)=O)cc3)sc2c1 [compound 21] | +++ (compounds with a TI of >5 were labeled as +++)
31 | CS(=O)(=O)c1cccc(C(=O)Nc2ccc3nc(SCC(=O)Nc4ccc(F)cc4)sc3c2)c1 [compound 174] | +++ (compounds with a TI of >5 were labeled as +++)
32 | O=C(CSc1nc2ccc(NC(=O)c3ccc(Cl)cc3)cc2s1)Nc1ccc(F)cc1 [compound 62] | ++ (compounds with a TI of 1 to 5 were labelled as ++)
33 | Cc1ccc(NC(=O)C(C)Sc2nc3ccc(NC(=O)c4ccccc4F)cc3s2)cc1 (centres unmarked) [compound 10] | +++ (compounds with a TI of >5 were labeled as +++)
34 | COc1ccc(C(=O)Nc2ccc3nc(SCC(=O)N(C)c4ccccc4)sc3c2)cc1 [compound 156] | + (Compounds with a TI of <1 were labelled as +)
35 | CCOc1ccc(NC(=O)C(C)Sc2nc3ccc(NC(=O)c4ccccc4)cc3s2)cc1 (centres unmarked) [compound 38] | ++ (compounds with a TI of 1 to 5 were labelled as ++)
36 | Cc1ccc(NC(=O)CSc2nc3ccc(NC(=O)c4ccccc4F)cc3s2)cc1Cl [compound 143] | + (Compounds with a TI of <1 were labelled as +)
37 | CCOc1ccc(C(=O)Nc2ccc3nc(SCC(N)=O)sc3c2)cc1 [compound 91] | ++ (compounds with a TI of 1 to 5 were labelled as ++)
38 | CCCCOc1ccc(NC(=O)CSc2nc3ccc(NC(=O)c4ccc(Cl)cc4)cc3s2)cc1 [compound 77] | ++ (compounds with a TI of 1 to 5 were labelled as ++)
39 | COc1ccccc1C(=O)Nc1ccc2nc(SCC(=O)Nc3c(C)cccc3C)sc2c1 [compound 59] | ++ (compounds with a TI of 1 to 5 were labelled as ++)
40 | Cc1ccccc1C(=O)Nc1ccc2nc(SCC(=O)Nc3ccccc3Cl)sc2c1 [compound 110] | ++ (compounds with a TI of 1 to 5 were labelled as ++)
41 | CCOc1ccc(C(=O)Nc2ccc3nc(SCC(=O)Nc4ccc(C)cc4C)sc3c2)cc1 [compound 47] | ++ (compounds with a TI of 1 to 5 were labelled as ++)
42 | O=C(CSc1nc2ccc(NC(=O)c3ccc(CO)c(F)c3)cc2s1)Nc1ccc(F)cc1 [compound 171] | +++ (compounds with a TI of >5 were labeled as +++)
43 | Cc1ccc(NC(=O)CSc2nc3ccc(NC(=O)c4ccc(C)cc4)cc3s2)cc1 [compound 145] | + (Compounds with a TI of <1 were labelled as +)
44 | CC(=O)c1ccc(NC(=O)CSc2nc3ccc(NC(=O)c4ccc(Cl)cc4)cc3s2)cc1 [compound 114] | ++ (compounds with a TI of 1 to 5 were labelled as ++)
